{
  "source": "paper PMC4013053",
  "about": "“Identification of Selective Small Molecule Inhibitors of the Nucleotide-Binding Oligomerization Domain 1 (NOD1) Signaling Pathway” (PLoS ONE, 2014)",
  "key": {"CLND solubility": {"assay": "CLND solubility", "format": "physicochemical", "conditions": "phosphate buffered saline with 5% DMSO, pH 7.4, aqueous buffer, kinetic from dmso stock; 5% DMSO pH7.4 phosphate buffered saline", "source_text": "(§1) Physicochemical analyses of compounds were completed at GSK."}, "NOD1": {"target": "T1, NOD1 (Homo sapiens, UniProt Q9Y239)", "T1 sequence (Q9Y239 1-953)": "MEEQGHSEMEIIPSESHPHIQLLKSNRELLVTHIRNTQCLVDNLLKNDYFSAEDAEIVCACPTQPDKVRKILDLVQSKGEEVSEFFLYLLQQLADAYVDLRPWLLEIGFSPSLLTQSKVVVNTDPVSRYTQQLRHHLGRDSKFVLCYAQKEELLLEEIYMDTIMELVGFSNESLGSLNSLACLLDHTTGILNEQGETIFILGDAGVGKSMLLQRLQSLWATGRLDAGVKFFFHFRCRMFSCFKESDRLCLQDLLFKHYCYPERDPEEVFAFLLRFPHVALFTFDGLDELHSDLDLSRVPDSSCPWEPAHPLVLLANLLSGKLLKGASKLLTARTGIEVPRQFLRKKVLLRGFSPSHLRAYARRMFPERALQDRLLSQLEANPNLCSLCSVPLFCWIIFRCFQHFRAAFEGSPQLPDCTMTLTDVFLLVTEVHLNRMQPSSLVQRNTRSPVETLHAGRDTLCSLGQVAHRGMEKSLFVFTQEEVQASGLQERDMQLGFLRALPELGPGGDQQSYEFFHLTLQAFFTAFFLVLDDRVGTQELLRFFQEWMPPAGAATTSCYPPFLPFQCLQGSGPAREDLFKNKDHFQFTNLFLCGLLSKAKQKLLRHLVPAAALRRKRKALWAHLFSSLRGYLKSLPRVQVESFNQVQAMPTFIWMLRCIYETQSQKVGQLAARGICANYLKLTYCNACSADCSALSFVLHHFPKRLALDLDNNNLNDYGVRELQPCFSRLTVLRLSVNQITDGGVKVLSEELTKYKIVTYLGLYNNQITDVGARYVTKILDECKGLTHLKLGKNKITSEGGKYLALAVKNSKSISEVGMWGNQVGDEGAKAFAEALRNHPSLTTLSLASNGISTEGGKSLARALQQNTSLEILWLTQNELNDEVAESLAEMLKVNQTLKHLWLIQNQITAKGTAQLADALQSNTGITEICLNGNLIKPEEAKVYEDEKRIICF", "assay": "iE-DAP-stimulated IL-8 release in 293/hNOD1 cells", "format": "cell-based", "method": "(§2) Inhibitors of iE-DAP-stimulated IL-8 release were screened in a 1536-well assay in which 293/hNOD1 cells (5000 cells/well) in DMEM high glucose medium supplemented with 0.1% FBS and 10 µg/mL Blasticidin S were stimulated with 60 ng/mL (200 nM) iE-DAP (EC80) in the presence of 10 µM compounds. After 24 hours the amount of IL-8 secreted into the medium was determined by homogeneous time resolved fluorescence (HTRF) assay by the direct addition of a 1∶1 mix of europium cryptate and XL665-conjugated anti-IL-8 antibodies according to the manufacturer’s instructions (Cisbio). Fluorescence was measured after 2 hours in a ViewLux imager using UMB-AMC excitation and 618–671 nm emission filters (Perkin Elmer). […] Inhibition of TNFR1-induced IL-8 release was performed with 293/hNOD1 cells stimulated with 20 ng/mL (∼EC95) rhTNFα.\n(§3) A high-throughput screen of about 2.2 million compounds was conducted for inhibitors of the NOD1 signaling pathway using suppression of iE-DAP stimulated IL-8 secretion in HEK293 cells stably expressing human NOD1 (293/hNOD1 cells). […] These assays were chosen to assess the selectivity of hits because the signaling pathways activated by these receptors converge at the level of the TAB/TAK1/IKK complex."}, "TNFR1": {"target": "T2, TNFR1 (Homo sapiens, UniProt P19438)", "T2 construct": "TNFR1 (TNFα stimulated IL-8 secretion in 293/hNOD1 cells); host or cells: 293/hNOD1 (HEK293)", "T2 sequence (P19438 30-455)": "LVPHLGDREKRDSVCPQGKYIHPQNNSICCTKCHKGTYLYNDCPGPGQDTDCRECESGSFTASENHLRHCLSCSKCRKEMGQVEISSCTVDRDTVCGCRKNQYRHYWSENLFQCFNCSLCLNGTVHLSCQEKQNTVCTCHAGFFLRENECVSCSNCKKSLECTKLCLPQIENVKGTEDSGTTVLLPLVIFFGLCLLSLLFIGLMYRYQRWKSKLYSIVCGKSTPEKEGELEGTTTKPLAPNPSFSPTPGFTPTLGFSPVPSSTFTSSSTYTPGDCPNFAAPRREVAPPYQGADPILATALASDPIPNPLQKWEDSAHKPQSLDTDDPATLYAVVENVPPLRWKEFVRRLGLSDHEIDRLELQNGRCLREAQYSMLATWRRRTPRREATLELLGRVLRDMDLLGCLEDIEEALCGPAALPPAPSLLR", "assay": "TNFα-stimulated IL-8 release in 293/hNOD1 cells", "format": "cell-based", "conditions": "IL-8 released into medium", "method": "as §2, §3"}, "[1]": {"assay": "Immobilized artificial membrane (IAM) binding", "format": "physicochemical", "source_text": "as §1"}, "endogenous NOD1": {"target": "T3, endogenous NOD1 (Homo sapiens, UniProt Q9Y239)", "T3 construct": "Compound activity on endogenous NOD1 and NOD2 receptors was determined; host or cells: HCT116", "T3 sequence (Q9Y239 1-953)": "T1 sequence (Q9Y239 1-953)", "assay": "Tri-DAP-stimulated IL-8 release in HCT116 cells", "format": "cell-based", "conditions": "for IC50: human colon carcinoma cells, IL-8 released into medium; for inhibition of Tri-DAP-stimulated IL-8 secretion: HCT116, increasing concentrations (16 nM–16 µM)", "method": "(§4) For assay, cells were seeded into 96 well plates (90,000 cells/well) in DMEM containing 1% FBS and pre-incubated with compounds for 1 hour before addition of either 25 µg/mL Tri-DAP or 1 µg/mL MDP. The level of IL-8 released into medium after 24-hour incubation was determined by HTRF assay (Cisbio) as described above and fluorescence measured on an Envision model 2102 multilabel plate reader (Perkin Elmer). The activity of compounds against NOD1-induced type I interferon response was determined by inhibition of Tri-DAP stimulated IP-10 secretion in HT-29 cells, maintained in the same medium as for HCT116 cells. The HT-29 cells were seeded into 96 well plates (60,000 cells/well) in DMEM with 1% FBS, pre-incubated with compounds for 1 hour and stimulated for 24 hours with 50 µg/mL Tri-DAP. The concentration of IL-8 released into the medium was measured by HTRF as above, IP-10 was measured using the IP-10/CXCL10 Quantikine ELISA kit (R&D Systems), and IFNβ was measured using the MA6000 human IFN-β tissue culture kit (Meso Scale Discovery)."}, "endogenous NOD2": {"target": "T4, endogenous NOD2 (Homo sapiens, UniProt Q9HC29)", "T4 construct": "Compound activity on endogenous NOD1 and NOD2 receptors was determined; host or cells: HCT116", "T4 sequence (Q9HC29 whole entry)": "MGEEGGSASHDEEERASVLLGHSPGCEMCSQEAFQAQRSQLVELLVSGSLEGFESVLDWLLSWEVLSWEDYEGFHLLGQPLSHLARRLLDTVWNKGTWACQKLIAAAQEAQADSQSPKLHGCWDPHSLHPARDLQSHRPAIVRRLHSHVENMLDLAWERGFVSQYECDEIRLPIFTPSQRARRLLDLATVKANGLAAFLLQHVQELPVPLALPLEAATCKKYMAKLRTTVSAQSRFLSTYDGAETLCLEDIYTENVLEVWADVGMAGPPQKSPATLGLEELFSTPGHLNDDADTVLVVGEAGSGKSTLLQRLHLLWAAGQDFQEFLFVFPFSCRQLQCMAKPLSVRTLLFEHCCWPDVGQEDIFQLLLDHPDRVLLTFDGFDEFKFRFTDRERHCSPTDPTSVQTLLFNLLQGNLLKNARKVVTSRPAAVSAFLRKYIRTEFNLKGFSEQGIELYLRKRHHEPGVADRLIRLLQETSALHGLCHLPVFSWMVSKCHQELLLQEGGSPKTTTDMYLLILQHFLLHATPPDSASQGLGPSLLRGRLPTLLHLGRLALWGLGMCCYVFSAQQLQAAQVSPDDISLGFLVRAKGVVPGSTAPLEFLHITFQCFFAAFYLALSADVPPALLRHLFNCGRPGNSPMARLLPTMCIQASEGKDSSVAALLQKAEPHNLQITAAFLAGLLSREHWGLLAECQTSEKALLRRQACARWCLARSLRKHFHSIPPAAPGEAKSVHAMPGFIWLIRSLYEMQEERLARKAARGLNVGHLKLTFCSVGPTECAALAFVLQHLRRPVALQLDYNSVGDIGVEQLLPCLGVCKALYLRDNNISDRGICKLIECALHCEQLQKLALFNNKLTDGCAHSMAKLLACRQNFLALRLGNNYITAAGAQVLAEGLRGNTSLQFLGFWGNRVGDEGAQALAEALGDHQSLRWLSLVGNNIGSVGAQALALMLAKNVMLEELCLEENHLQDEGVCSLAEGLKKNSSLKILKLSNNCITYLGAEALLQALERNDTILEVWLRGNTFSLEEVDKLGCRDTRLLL", "assay": "MDP-stimulated IL-8 release in HCT116 cells", "format": "cell-based", "conditions": "for IC50: human colon carcinoma cells, IL-8 released into medium", "method": "as §4"}, "[2]": {"conditions": "HEK293 stably expressing human NOD1, IL-8 released into medium, read-out: IC50 293/hNOD1 iE-DAP"}},
  "note": "Read-outs that look alike come from different tables or passages of the source.",
  "data": [
    {"molecule": "Cc1ccc(S(=O)(=O)Nc2cccc(C(=O)Nc3ccc4nc(C)sc4c3)c2)cc1", "note": "[Compound 16]", "values": [
      {"measurement": "solubility", "setting": "CLND solubility", "result": 14, "unit": "µM"},
      {"measurement": "IC50", "setting": "NOD1; [2]", "result": 400, "unit": "nM"},
      {"measurement": "IC50", "setting": "NOD1; iE-DAP-stimulated IL-8 production in 293/hNOD1 cells, SAR figures, read-out: NOD1 XC50", "result": "430 ± 100", "unit": "nM"},
      {"measurement": "IC50", "setting": "TNFR1", "result": "> 30000", "unit": "nM"},
      {"measurement": "IAM binding", "setting": "[1]", "result": 2.45, "unit": "log K"},
      {"measurement": "IC50", "setting": "endogenous NOD1", "result": 60, "unit": "nM"}
    ]},
    {"molecule": "Cc1nc2ccccc2c(=O)n1-c1ccc(Cl)c(NS(=O)(=O)c2ccccc2F)c1", "note": "[Compound 22]", "values": [
      {"measurement": "IC50", "setting": "NOD1; [2]", "result": 60, "unit": "nM"},
      {"measurement": "IC50", "setting": "endogenous NOD2", "result": "> 15000", "unit": "nM"},
      {"measurement": "IC50", "setting": "TNFR1", "result": "> 50000", "unit": "nM"},
      {"measurement": "IC50", "setting": "endogenous NOD1", "result": 30, "unit": "nM"}
    ]},
    {"molecule": "CCc1ccc(S(=O)(=O)Nc2cc(-n3c(C)nc4ccccc4c3=O)ccc2F)s1", "note": "[GSK223]", "values": [
      {"measurement": "solubility", "setting": "CLND solubility", "result": 327, "unit": "µM"},
      {"measurement": "IC50", "setting": "NOD1; [2]", "result": 1000, "unit": "nM"},
      {"measurement": "greatest inhibition of MDP-stimulated IL-8 release", "setting": "endogenous NOD2; HCT116, at high concentrations", "result": 30, "unit": "%"},
      {"measurement": "IC50", "setting": "endogenous NOD2", "result": "> 50000", "unit": "nM"},
      {"measurement": "IC50", "setting": "TNFR1", "result": "> 50000", "unit": "nM"},
      {"measurement": "IAM binding", "setting": "[1]", "result": 1.68, "unit": "log K"},
      {"measurement": "inhibition of Tri-DAP-stimulated IL-8 secretion", "setting": "endogenous NOD1", "result": "complete inhibition"},
      {"measurement": "IC50", "setting": "endogenous NOD1", "result": 400, "unit": "nM"}
    ]},
    {"molecule": "Cc1nc2ccc(NC(=O)c3cccc(NS(=O)(=O)c4ccc(F)cc4)c3)cc2s1", "note": "[GSK966]", "values": [
      {"measurement": "solubility", "setting": "CLND solubility", "result": 41, "unit": "µM"},
      {"measurement": "IC50", "setting": "NOD1; [2]", "result": 3500, "unit": "nM"},
      {"measurement": "IC50", "setting": "TNFR1", "result": "> 50000", "unit": "nM"},
      {"measurement": "IAM binding", "setting": "[1]", "result": 2.38, "unit": "log K"},
      {"measurement": "inhibition of Tri-DAP-stimulated IL-8 secretion", "setting": "endogenous NOD1", "result": "complete inhibition"},
      {"measurement": "IC50", "setting": "endogenous NOD1", "result": 700, "unit": "nM"}
    ]},
    {"molecule": "Cn1c(=O)[nH]c(=O)c2c1nc(CCSc1ccccc1)n2Cc1ccccc1", "note": "[SB711]", "values": [
      {"measurement": "solubility", "setting": "CLND solubility", "result": 2, "unit": "µM"},
      {"measurement": "IC50", "setting": "NOD1; [2]", "result": 600, "unit": "nM"},
      {"measurement": "IC50", "setting": "endogenous NOD2", "result": "> 50000", "unit": "nM"},
      {"measurement": "IC50", "setting": "TNFR1", "result": "> 50000", "unit": "nM"},
      {"measurement": "IAM binding", "setting": "[1]", "result": 2.41, "unit": "log K"},
      {"measurement": "inhibition of Tri-DAP-stimulated IL-8 secretion", "setting": "endogenous NOD1", "result": "complete inhibition"},
      {"measurement": "IC50", "setting": "endogenous NOD1", "result": 900, "unit": "nM"}
    ]}
  ]
}
